Experimental data from patent publication US20060263453A1, “Methods and compositions for modulating glutamate dehydrogenase” (priority 2004, published 2006).

Key:
rat islets [1] = assay: BCH-stimulated insulin secretion and oxygen consumption in perifused islets; format: cell-based, Wistar rat
Description: In this Example, the effects of EGCG and EGC on LSIS were measured, while simultaneously monitoring respiration rates. More particularly, the effects of EGCG (20 μM) and EGC (20 μM) on BCH-stimulated insulin secretion were measured. First, 1000 adult male Wistar rat islets were isolated as described above and were cultured on a glass perfusion chamber in 10 mM glucose for 3 days. Next, the islets were perifused in an oxygen consumption measurement apparatus containing BCH, along with 0 μM EGCG and 0 μM EGC, 20 μM EGCG, or 20 μM EGC. The perifusion apparatus used in these Examples consisted of a peristaltic pump, a water bath (37° C.), a gas exchanger (artificial lung: media flowed through the thin-walled silastic tubing loosely coiled in a glass jar that contained 20% O2 and 5% CO2 balanced with N2), and fraction collector. All transfer lines were insulated. After the system was provided with 20 μM EGCG or 20 μM EGC, oxygen partial pressure was recorded every 10 seconds by phosphorescence lifetimes of an oxygen-sensitive porphyrin (palladium-mesotetra; 4-carboxyphenyl porphyrin dendrimer). The dye molecules were excited with pulses at 524 nm from a UV lead and emission was measured at 690 nm. The inflow oxygen tension was measured in the absence of islets in the chamber before and after each experiment. The perifusate was a Krebs buffer (pH 7.4) containing 2.2 mM Ca^2+, 1% bovine serum albumin equilibrated with 20% O2 and 5% CO2 balanced with N2. The flow rate was […] and samples were collected every 2 minutes for insulin measurements by radioimmunoassay. The results are summarized in FIG. 6, and are presented as means±S.E. for 1000 islets from 3 separate experiments for EGCG (and from 1 experiment for EGC). Due to the high density of data, S.E. is only shown in every 20 samples.

Bovine GDH (bGDH) = target: T1, Bovine GDH (bGDH) (Bos taurus, UniProt P00366); assay: reductive amination reaction catalyzed by bovine GDH (NADH absorbance at 340 nm); format: biochemical
T1 construct: purchased Sigma Aldrich Chemical Company (St. Louis, Mo.)
T1 sequence (P00366 58-558): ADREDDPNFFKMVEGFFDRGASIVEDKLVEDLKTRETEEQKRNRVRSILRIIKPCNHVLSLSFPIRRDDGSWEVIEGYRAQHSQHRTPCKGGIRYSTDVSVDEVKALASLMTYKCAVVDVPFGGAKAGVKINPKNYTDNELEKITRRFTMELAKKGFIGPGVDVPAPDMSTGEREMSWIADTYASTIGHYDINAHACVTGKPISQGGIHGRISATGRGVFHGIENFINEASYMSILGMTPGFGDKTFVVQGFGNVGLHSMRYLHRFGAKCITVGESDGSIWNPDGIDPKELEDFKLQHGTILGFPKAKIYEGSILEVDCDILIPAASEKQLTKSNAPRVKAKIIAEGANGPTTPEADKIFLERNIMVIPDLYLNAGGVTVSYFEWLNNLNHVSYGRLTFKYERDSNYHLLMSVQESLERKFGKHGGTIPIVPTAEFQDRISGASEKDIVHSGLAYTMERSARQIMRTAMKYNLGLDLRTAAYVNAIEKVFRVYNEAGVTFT
Description: In this Example, the effects of epigallocatechin gallate (EGCG), epigallocatechin (EGC), epicatechin gallate (ECG), and epicatechin (EC) from Camellia sinensis on GDH activity were tested. Bovine GDH (bGDH) was used in this Example, which was obtained as an aqueous (NH4)2SO4 suspension from Sigma Aldrich Chemical Company (St. Louis, Mo.).
(§1) First, aliquots of GDH were extensively dialyzed against 0.1M sodium phosphate buffer, pH 7.0, which contained 1 mM ethylenediaminetetraacetic acid (EDTA). The enzyme concentrations were adjusted to 1 mg/ml and the amount of enzyme added to the reaction mixture, for kinetic analysis, was adjusted to yield optimal steady state velocity measurements. All solutions were made immediately prior to use. Enzyme assays were performed by monitoring reduced coenzyme absorbance at 340 nm using a Shimadzu UV-1601 spectrophotometer. The reductive amination reactions were performed in 3 mL volumes at pH 7.0 in the presence of 0.1 mM nicotinamide adenine dinucleotide (NADH), 50 mM NH4Cl, and 5 mM 2-oxoglutarate. The rate of NADH oxidation was calculated using an extinction coefficient of 6.22 mM^−1 cm^−1.

[2] = system: GDH from Tetrahymena thermophilia (tGDH); assay: kinetic analysis of Tetrahymena GDH; format: biochemical; conditions: FIG. 4
Description: as §1
(§2) To this end, EGCG was tested against five different HI/HA mutant forms of GDH, namely, R265K, R269C, E296A, S448P, and H454Y. In addition, EGCG was tested against human wild type GDH (“WT”), GDH from Tetrahymena thermophilia (“tGDH”) that, like the HI/HA mutant GDH enzymes, is not regulated by GTP, and a human GDH that was missing a certain 48 residue ‘antenna-like’ feature protruding from the top of each of its six subunits that is necessary for ADP, GTP, and Palmitoyl CoA regulation. […]

[3] = system: 'antenna-less' form of human GDH; assay: kinetic analysis of 'antenna-less' human GDH; format: biochemical; conditions: FIG. 4
Description: as §1, §2

islets = assay: [U-14C]-glucose oxidation in islets; format: cell-based, rat; conditions: wide range of EGCG concentrations; 3 mM or 12 mM glucose; FIG. 10
Description: In addition, the effect of EGCG on glucose oxidation was measured. More particularly, batches of 100 islets were prepared as described herein and preincubated with glucose-free Krebs-Ringer bicarbonate buffer containing varying concentrations of EGCG (shown in FIG. 10) for 60 minutes. Islets were then incubated with 3 mM or 12 mM glucose, in the presence of the varying concentrations of EGCG, for another 60 minutes, along with 2 mCi [U-^14C]-glucose (NEN-Life Science Products, UK). Production of ^14CO2 was monitored as described above.

rat islets [4] = assay: glucose stimulated insulin secretion (GSIS), short run-down (50 minutes), glucose ramp; format: cell-based; conditions: 20 μM, FIGS. 8A and 8B
Description: In this Example, the effect of EGCG on glucose stimulated insulin secretion (GSIS) was examined. Isolated rat islets were cultured with 20 mM glucose (FIG. 8A) and 10 mM glucose (FIG. 8B) for 3 days, then perifused in the absence of glucose for 50 minutes and in the presence of 0 μM EGCG; 20 μM EGCG; or 20 μM EGC. Next, the islets were stimulated by a glucose ramp (0 to 25 mM, 0.5 mM/minute). Finally, the islets were exposed to 30 mM KCl. Insulin levels were measured every minute by radioimmunoassay. The results shown in FIG. 8A are presented as means±S.E. for 100 islets from 3 separate experiments (and means±S.E. for 100 islets from 1 experiment for FIG. 8B).

O=C(O[C@@H]1Cc2c(O)cc(O)cc2O[C@@H]1c1cc(O)c(O)c(O)c1)c1cc(O)c(O)c(O)c1 [EGCG, (2R,3R)-2-(3,4,5-Trihydroxyphenyl)-3,4-dihydro-1 (2H)-benzopyran-3,5,7-triol 3-(3,4,5-trihydroxybenzoate)]
effect on LSIS (BCH-induced insulin secretion) (rat islets [1]; 20 μM, FIG. 6A): strongly inhibited
effect on BCH-induced increase in respiration rates (rat islets [1]; 20 μM, FIG. 6B): inhibited
effect on oxygen consumption in the absence of BCH (rat islets [1]; data not shown): did not have any significant effect
potent inhibitor of GDH activity (Bovine GDH (bGDH); FIG. 1A): potent inhibitors
reversibility of inhibition (Bovine GDH (bGDH); dialysis of an EGCG/GDH mixture, data not shown): reversible
inhibition of tGDH [2]: inhibited
inhibition of 'antenna-less' human GDH [3]: did not inhibit
effect on glucose oxidation (islets): did not affect
effect on GSIS (rat islets [4]): neither EGC nor EGCG affected
